Measured values published in publication PMC7692337, “Masked Phenolic-Selenium Conjugates: Potent and Selective Antiproliferative Agents Overcoming P-gp Resistance” (Pharmaceuticals, 2020).
Read-outs that look alike come from different tables or passages of the source.

Assays:
BJ-hTert (fibroblasts) = experiment: Antiproliferative activity on non-tumour cells, NCI protocol; assay type: cell-based, human; conditions: non-tumour cell line, read-out: GI50 BJ-hTert (Fibroblasts)
Protocol: (§1) Organochalcogen derivatives prepared herein were evaluated in vitro as potential antiproliferative agents, using a panel of six human tumour cell lines: A549 (non-small cell lung), HBL-100 (breast), HeLa (cervix), SW1573 (non-small cell lung), as drug sensitive lines, T-47D (breast) and WiDr (colon) as drug resistant lines. In addition to precursors 2, 6, 7, 13, 14, 17, 19, ebselen and cisplatin (CDDP) were used as reference drugs. […] In both cases, the NCI protocol, with minor modifications, was followed; selected data, including the selectivity index (S.I.) can be found in Table 3 and full data in Supporting Information (Table S1).
(§2) The in vitro antiproliferative activity was assayed using minor modifications of the protocol of the National Cancer Institute (NCI) of the United States against the six human solid tumor cell and the non-tumor cell lines tested.

HeLa (cervix) = experiment: Antiproliferative activity, NCI protocol; assay type: cell-based, human
Protocol: as §1, §2

T-47D (breast) = experiment: Antiproliferative activity, NCI protocol; assay type: cell-based, human; conditions: read-out: GI50 T-47D (Breast)
Protocol: as §1, §2

HBL-100 (breast) = experiment: Antiproliferative activity, NCI protocol; assay type: cell-based, human
Protocol: as §1, §2

[1] = system: SW1573 (non-small cell lung); experiment: Antiproliferative activity, NCI protocol; assay type: cell-based, human
Protocol: as §1, §2

WiDr (colon) = experiment: Antiproliferative activity, NCI protocol; assay type: cell-based, human; conditions: read-out: GI50 WiDr (Colon)
Protocol: as §1, §2

[2] = system: A549 (non-small cell lung); experiment: Antiproliferative activity, NCI protocol; assay type: cell-based, human
Protocol: as §1, §2

[3] = H2O2 scavenging (phenol red / horseradish peroxidase); conditions: At 50 µM
Protocol: (§3) In vitro antioxidant properties of key unprotected phenolic derivatives were analyzed using two different methodologies: free radical scavenging capacity, using the DPPH method (2,2-diphenyl-1-picrylhydrazyl), a HAT (hydrogen atom transfer) procedure, widely-used for both natural and synthetic derivatives, and also the capacity for scavenging H2O2, one of the most common ROS in degenerative diseases, including cancer.
Herein, following Bahorun’s methodology, in vitro levels of H2O2 were measured in an indirect fashion, by registering the H2O2-mediated oxidation of phenol red in the presence of horseradish peroxidase, to give a chromophore with a maximum absorption at 610 nm. Accordingly, in the presence of an antioxidant agent, there is an inverse correlation between the observed absorbance, and the scavenging properties. Table 2 depicts the H2O2-scavenging properties of compounds prepared herein, and tested at a final 50 µM concentration.
Reported methodology was used with minor modifications.

[4] = system: six human tumour cell lines (A549, HBL-100, HeLa, SW1573, T-47D, WiDr); experiment: Antiproliferative activity, panel of six human tumour cell lines; assay type: cell-based; conditions: summary over the tested tumour cell lines, highest tested concentration 100 µM
Protocol: as §1, §2

[5] = Free radical scavenging (DPPH method); conditions: 30 min incubation, absorbance at 515 nm, read-out: EC50 antiradical activity (DPPH)
Protocol: as §3
DPPH is a commercially-available stable free radical commonly used for in vitro testing of radical scavenging properties of antioxidants.
Reported methodology was used with minor modifications. To a 60 µM methanolic DPPH solution (1.17 mL), the antioxidant solution (5–7 different solutions, 30 µL) or solvent (control, 30 µL) were added. After 30 min. of incubation in the dark, absorbance was measured at 515 nm, and EC50 values were calculated.

SW1573 = experiment: P-glycoprotein assay, wild type line; assay type: cell-based; conditions: Homo sapiens, 48 h exposure
Protocol: (§4) This assay allows prediction of whether a certain chemotherapeutic agent could develop chemoresistance when behaving as a P-gp substrate, one of the most common efllux-pumps used for the extrusion of cell xenobiotics. For that purpose, a cell line-based assay was used, in particular the lung cancer cell line in its wild type (SW1573), and its variant overexpressing P-gp (Sw1573/Pgp). Moreover, compounds were tested in the presence and in the absence of verapamil, which is known to inhibit P-gp. Chemotherapeutic agents paclitaxel (PTX) and vinblastine (VB) are used herein as reference compounds. In this assay, the resistance factor (Rf) for a certain compound is defined as the ratio of GI50 in the cell line overexpressing P-gp and the wild one (Table 4), high values of Rf denoting that the compound behaves as a P-gp substrate, and thus, chemoresistance through this mechanism will probably take place.

[6] = P-glycoprotein assay, line overexpressing P-gp; assay type: cell-based, human; conditions: human, 48 h exposure
Protocol: as §4

SW1573/Pgp = experiment: P-glycoprotein assay, line overexpressing P-gp; assay type: cell-based, human; conditions: ratio between GI50 values in SW1573/PGP and SW1573 cells
Protocol: as §4

[7] = Homo sapiens, HeLa; read-out: GI50 HeLa (Cervix)
[8] = Homo sapiens, T47D, drug resistant line
[9] = Homo sapiens, HBL-100; read-out: GI50 HBL-100 (Breast)
[10] = Homo sapiens, SW1573, Table S1, read-out: GI50 SW1573 (Lung)
[11] = Homo sapiens, WiDr, drug resistant line
[12] = Homo sapiens, A549; read-out: GI50 A549 (Lung)

Row | Structure (SMILES) | % Scavenging of H2O2 [3] [%] | GI50 (HeLa (cervix); [7]) [µM] | GI50 (T-47D (breast); [8]) [µM] | GI50 (HBL-100 (breast); [9]) [µM] | GI50 [1, 10] [µM] | GI50 (WiDr (colon); [11]) [µM] | GI50 [2, 12] [µM] | GI50 over the tumour cell lines (range, bound or words) [4] | EC50 [5] [µM] | also measured
1 | [NH2][Pt]([NH2])([Cl])[Cl] [CDDP, cisplatin, reference compound] | – | – | – | – | – | – | – | – | – | GI50 (BJ-hTert (fibroblasts)): 14 ± 2 µM; GI50 (HeLa (cervix); read-out: GI50 HeLa (Cervix)): 2 ± 0.3 µM; GI50 (T-47D (breast); drug resistant line): 15 ± 2 µM; GI50 (HBL-100 (breast); read-out: GI50 HBL-100 (Breast)): 1.9 ± 0.2 µM; GI50 ([1]; Table S1, read-out: GI50 SW1573 (Lung)): 3.4 ± 0.7 µM; GI50 (WiDr (colon); drug resistant line): 26 ± 6 µM; GI50 ([2]; read-out: GI50 A549 (Lung)): 4.9 ± 0.2 µM
2 | O=C(CSSCC(=O)NCCc1ccc(O)c(O)c1)NCCc1ccc(O)c(O)c1 [Compound 8, 2,2′-Dithiobis{N-[2′’-(3′’’,4′’’-dihydroxyphenyl)ethyl]acetamide}] | 26.5 ± 2.1 | > 100 | > 100 | > 100 | > 100 | > 100 | > 100 | negligible activities | 12.3 ± 0.5 | –
3 | O=C(CCCSSCCCC(=O)NCCc1ccc(O)c(O)c1)NCCc1ccc(O)c(O)c1 [Compound 10] | 11.8 ± 0.5 | > 100 | > 100 | > 100 | > 100 | > 100 | > 100 | negligible activities | 15.3 ± 0.1 | –
4 | O=C(CCC[Se][Se]CCCC(=O)NCCc1ccc(O)c(O)c1)NCCc1ccc(O)c(O)c1 [Compound 16, 4,4′-Diselenobis{N-[2′’-(3′’’,4′’’-dihydroxyphenyl)ethyl]butanamide}] | – | 2.3 ± 0.4 | 5.8 ± 0.9 | 2.4 ± 0.6 | 3 ± 0.2 | 3.9 ± 0.6 | 3.7 ± 0.6 | – | 9.3 ± 1.3 | GI50 (BJ-hTert (fibroblasts); Homo sapiens, Fibroblast): 3.5 ± 0.6 µM; GI50 (SW1573; with verapamil, read-out: GI50 SW153 w Verapamil): 2.3 ± 0.3 µM; GI50 (SW1573; without verapamil, read-out: GI50 SW1573 w/o Verapamil): 2.7 ± 0.3 µM; GI50 ([4]; Homo sapiens, read-out: GI50 over the tumour cell lines (range, bound or words)): < 6 µM; GI50 at 48 h ([6]; with verapamil (concentration not stated), with verapamil, read-out: GI50 SW1573/PGP w Verapamil): 5.1 ± 0.4 µM; GI50 at 48 h ([6]; without verapamil, read-out: GI50 SW1573/PGP w/o Verapamil): 5.1 ± 0.6 µM; Rf w Verapamil (SW1573/Pgp; with verapamil): 2.2; Rf w/o Verapamil (SW1573/Pgp; without verapamil): 1.9
5 | N#C[Se]CCC(=O)NCCc1ccc(O)c(O)c1 [Compound 20, N-[2′-(3′’,4′’-Dihydroxyphenyl)ethyl]-3-selenocyanatopropanamide] | 25.8 ± 1.0 | – | – | – | – | – | – | moderate antiproliferative properties | 10.8 ± 0.4 | GI50 (HeLa (cervix); Homo sapiens, HeLa, read-out: GI50 HeLa (Cervix)): 19 ± 8 µM; GI50 (T-47D (breast); Homo sapiens, T47D): 35 ± 1 µM; GI50 (HBL-100 (breast); Homo sapiens, HBL-100, read-out: GI50 HBL-100 (Breast)): 37 ± 2 µM; GI50 ([1]; Homo sapiens, SW1573, read-out: GI50 SW1573 (Lung)): 24 ± 8 µM; GI50 (WiDr (colon); Homo sapiens, WiDr): 41 ± 10 µM; GI50 ([2]; Homo sapiens, A549, read-out: GI50 A549 (Lung)): 28 ± 8 µM
